Source: PMC12557367, ““Precision on Two Wheels”–Structural Refinement of ^64Cu- and ^68Ga-Labeled Bicyclic Peptides Targeting Nectin‑4 for Improved Tumor Imaging: From Preclinical Development to First-in-Human Application” (Journal of Medicinal Chemistry, 2025)
Numbered stars: 1 amine (or outer) side, 2 acyl side, 3 side chain; on linkers, the order of the positions; unused ones are H or OH. Bridge positions count the residues as written; N and C are the ends. Square brackets hold non-standard residues; d marks the D form. Peptide text beside a SMILES is read from it. * marks the point of attachment. TATA = O=C(CC[*:1])N1CN(C(=O)CC[*:2])CN(C(=O)CC[*:3])C1; X1 = O=C(O)CN1CCN(CC(=O)O)CCN([C@H](CCC(=O)*)C(=O)O)CC1; 1Nal = N[C@@H](Cc1cccc2ccccc12)C(=O)O; 2Nal = N[C@@H](Cc1ccc2ccccc2c1)C(=O)O; Hyp = O=C(O)[C@@H]1C[C@@H](O)CN1; hArg = N=C(N)NCCCC[C@H](N)C(=O)O; SeMet = C[Se]CC[C@H](N)C(=O)O; hSer = N[C@@H](CCO)C(=O)O; Nle = CCCC[C@H](N)C(=O)O

How the values were obtained:
[1] = Chromatographic hydrophobicity index at immobilized artificial membrane (CHI IAM7.4) by HPLC; format: physicochemical; conditions: nonlabeled peptide, pH 7.4
Description: Consequently, the CHI IAM7.4 values indicate that unfavorable pharmacokinetic behavior due to nonspecific binding is not to be expected.
All commercial reagents and solvents were used without further purification, unless otherwise specified. […] The purity of compound 5, which bears selenomethionine, was lower due to the lability to oxidation (as discussed above). The HPLC-based determination of chromatographic hydrophobicity indices at an immobilized artificial membrane was performed as previously described according to the method developed by Valko et al.

[2] = n-Octanol/PBS distribution coefficient (logD 7.4); format: physicochemical; conditions: for logD: pH 7.4, logD 7.4
Description: The determination of logD 7.4 was performed in triplicate. A sample of the ^64Cu/^68Ga-labeled compound containing ≈1 MBq in a volume of 1 μL was added to a 1.5 mL Eppendorf tube containing 400 μL of PBS (pH 7.4) and 400 μL of n-Octanol (the phases were presaturated with each other). The tube was vortexed vigorously for 1 min and then centrifuged at 16,100g for 4 min to separate the phases. For sampling from the aqueous phase, the pipette tip was discharged while passing through the octanol layer. Then, the sample was taken within the aqueous phase. Any residual liquid was carefully removed by moving the tip along the inner wall of an Eppendorf tube. The radioactivity in a defined volume of each layer was measured (ISOMED 2100). The distribution coefficient was expressed as the logarithm of the ratio of counts per minute (cpm) measured in the n-Octanol phase to the cpm measured in the PBS phase.

[3] = biological target: T1, recombinant human nectin-4 (Homo sapiens, UniProt Q96NY8); assay: FA-based competitive binding assay with probe 1a; conditions: for Hill coefficient n: competitive binding curve, variable slope
T1 construct: close to the value determined for the complete extracellular domain of nectin-4 (0.94 nM); purchased R&D Systems 2659-N4
T1 sequence (Q96NY8 32-349 limits assumed): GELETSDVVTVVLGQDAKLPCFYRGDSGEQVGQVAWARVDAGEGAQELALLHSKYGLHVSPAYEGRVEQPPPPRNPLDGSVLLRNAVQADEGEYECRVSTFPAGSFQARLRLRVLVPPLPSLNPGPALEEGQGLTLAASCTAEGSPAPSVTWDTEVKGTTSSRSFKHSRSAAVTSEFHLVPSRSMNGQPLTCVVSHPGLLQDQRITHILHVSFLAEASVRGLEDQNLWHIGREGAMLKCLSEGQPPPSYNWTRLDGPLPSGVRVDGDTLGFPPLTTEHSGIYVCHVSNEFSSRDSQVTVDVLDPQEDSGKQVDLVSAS

HT-1376 cells = assay: Saturation binding assay on intact cells; format: cell-based, human; conditions: ^64Cu-labeled ligand, intact HT-1376 cells, 60 min, PBS wash; apparent; ±SD
Description: For the saturation binding assay, total and nonspecific binding were determined as described above using 10 different radioligand concentrations ([…]) prepared by serial 1:1 dilution. Plots of “total binding” = f(radioligand) were analyzed by nonlinear regressions using the model of “one site-total, accounting for ligand depletion” as implemented in GraphPad Prism, and Plots of “nonspecific binding” = f(radioligand) were analyzed by linear regressions.

[4] = biological target: T2, immobilized human nectin-4 (Homo sapiens, UniProt Q96NY8); assay: SPR analysis of binding kinetics; conditions: ±SEM; for kon: HBS-P+ pH 7.4, 25 °C, read-out: k on (SPR, *10^6 M^–1 s^–1); for koff: pH 7.4, HBS-P+ pH 7.4, 25 °C, read-out: k off (SPR, *10^–3 s^–1)
T2 construct: close to the value determined for the complete extracellular domain of nectin-4 (0.94 nM); purchased R&D Systems 2659-N4
T2 sequence (Q96NY8 32-349 limits assumed): T1 sequence (Q96NY8 32-349 limits assumed)

[5] = test system: HT-1376-derived tumor xenograft model; assay: Small animal PET/CT imaging; design: species or system mice; conditions: mouse, in vivo
Summary of the method: (§1)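 NMRI nude mice bore subcutaneous HT-1376 xenografts (5 × 10^6 cells in 50% Matrigel), imaged at ~200 mm^3 tumour volume. Radioligand (molar activity 25 MBq/nmol; ~9 MBq, ≈0.46 nmol) injected i.v. via tail vein, with 75 nmol blocking substance co-injected for blocking; dynamic 2 h PET from injection plus CT for attenuation correction.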

[6] = biological target: human serum albumin (HSA) (Homo sapiens, UniProt P02768); format: in vitro ADME
Chain of human serum albumin (HSA) (P02768 25-609): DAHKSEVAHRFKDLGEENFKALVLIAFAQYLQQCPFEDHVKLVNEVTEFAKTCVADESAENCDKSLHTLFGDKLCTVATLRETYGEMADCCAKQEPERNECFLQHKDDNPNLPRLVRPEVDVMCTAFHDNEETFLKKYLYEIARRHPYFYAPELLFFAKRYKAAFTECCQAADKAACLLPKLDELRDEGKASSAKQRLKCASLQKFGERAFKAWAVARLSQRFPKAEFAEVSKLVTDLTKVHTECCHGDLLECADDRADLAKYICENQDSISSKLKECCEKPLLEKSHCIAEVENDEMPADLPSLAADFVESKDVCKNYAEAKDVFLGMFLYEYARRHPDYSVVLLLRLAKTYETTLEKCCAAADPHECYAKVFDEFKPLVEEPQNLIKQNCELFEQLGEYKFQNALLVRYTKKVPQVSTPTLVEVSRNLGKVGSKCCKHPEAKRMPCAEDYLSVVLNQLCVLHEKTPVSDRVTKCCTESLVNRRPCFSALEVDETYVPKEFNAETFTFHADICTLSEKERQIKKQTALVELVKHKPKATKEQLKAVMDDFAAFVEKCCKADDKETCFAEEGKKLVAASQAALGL
From the text: page 20: S20 Figure S11: Assessment of plasma protein and HSA binding for [64Cu]Cu-1e and [64Cu]Cu-4 by ultrafiltration […] PBS), and undiluted human plasma. B) Plot of “percentage of retained activity in filter” = f([HSA]) for [64Cu]Cu-4 with nonlinear regression according to the Morrison equation ( total […] labeling). For details on the experimental method and regression analysis see ref. 1. PBS HSA Plasma 0% 20% 40% 60% 80% 47 64 50 percentage of retained activity in filter 102 103 104 105 106 107 0 20 40 60 80 100 [HSA] (nM) percentage of retained activity in filter […] A B (1 picture or pasted object on this page, not shown here)

[7] = Small animal PET/CT imaging; design: species or system mice; conditions: mouse, in vivo
Summary of the method: as §1

[8] = Oxidation stability in H2O2 (radio-HPLC)
Description: To avoid a too rapid degradation of radiolabeled peptides, a low H2O2 concentration of 0.0012% was chosen. […] In this context, there are three further thioether functionalities in each peptide due to the cyclization of the Cys residues with TATA. In Figure , the curves for the time-dependent degradation of the intact radioligands are depicted, from which the respective half-lives were calculated.
The stability toward oxidizing conditions was assessed with H2O2. For this purpose, the radioligands (2 nmol, 48 μL of labeling mixture) were treated with H2O2 (2 μL of 0.03%, final concentration of 0.0012%) at ambient temperature. At distinct time points (3, 5, and 7 h), an aliquot of 2 μL was withdrawn and diluted with 48 μL of a mixture named “Supersol,” which consists of 20% ethanol, 0.5% Triton X-100, 5 mM EDTA, 0.5 mM o-phenanthroline, and 0.1% saponin. […] The resulting solutions were analyzed by radio-HPLC (same system as that used for analyzing the ^64Cu-labelings).

| Structure (SMILES) | CHI IAM7.4 [1] | logD [2] | Hill coefficient n [3] | kon [4] | koff [4] | Percent fast [%] [5] | time of highest tumor uptake [5] | half-life [8] | other results |
| --- | --- | --- | --- | --- | --- | --- | --- | --- | --- |
| CSCC[C@@H]1NC(=O)[C@@H]2CSCCC(=O)N3CN(CN(C3)C(=O)CCSC[C@H](NC(=O)CC[C@H](C(=O)O)N3CCN(CC(=O)O)CCN(CC(=O)O)CC3)C(=O)N3CCC[C@H]3C(=O)N[C@@H](Cc3ccc4ccccc4c3)C(=O)N[C@H](CC(=O)O)C(=O)N2)C(=O)CCSC[C@@H](C(N)=O)NC(=O)[C@H](Cc2c[nH]c3ccccc23)NC(=O)[C@@H]2C[C@@H](O)CN2C(=O)[C@@H]2CCCN2C(=O)[C@H]([C@@H](C)O)NC(=O)[C@H](CO)NC(=O)[C@H](Cc2c[nH]c3ccccc23)NC(=O)[C@H](CC(=O)O)NC(=O)[C@H](CCCNC(=N)N)NC1=O [8a] (X1-CP[2Nal][dD]CMRDWSTP[Hyp]WC-NH2; linker 1-5-15 via TATA) | 20.3 | -2.48 | 0.99 | 680000 M⁻¹ s⁻¹ | 0.0433 s⁻¹ |  |  |  | fold lower binding affinity compared to 1e ([3]; FA K d ratio): 30 fold; Kd (HT-1376 cells): 51.7 nM |
| CSCC[C@@H]1NC(=O)[C@@H]2CSCCC(=O)N3CN(CN(C3)C(=O)CCSC[C@H](NC(=O)CC[C@H](C(=O)O)N3CCN(CC(=O)O)CCN(CC(=O)O)CC3)C(=O)N3CCC[C@H]3C(=O)N[C@@H](Cc3cccc4ccccc34)C(=O)N[C@H](CC(=O)O)C(=O)N2)C(=O)CCSC[C@@H](C(N)=O)NC(=O)[C@H](Cc2c[nH]c3ccccc23)NC(=O)[C@@H]2C[C@@H](O)CN2C(=O)[C@@H]2CCCN2C(=O)[C@H]([C@@H](C)O)NC(=O)[C@H](CO)NC(=O)[C@H](Cc2c[nH]c3ccccc23)NC(=O)[C@H](CC(=O)O)NC(=O)[C@H](CCCCNC(=N)N)NC1=O [[^64Cu]Cu-1e] [metal not drawn] |  |  |  |  |  | 86.95 ±2.10% | ≈ 6 min |  | binding to HSA or other plasma proteins [6]: negligible binding capability |
| CCCC[C@@H]1NC(=O)[C@@H]2CSCCC(=O)N3CN(CN(C3)C(=O)CCSC[C@H](NC(=O)CC[C@H](C(=O)O)N3CCN(CC(=O)O)CCN(CC(=O)O)CC3)C(=O)N3CCC[C@H]3C(=O)N[C@@H](Cc3cccc4ccccc34)C(=O)N[C@H](CC(=O)O)C(=O)N2)C(=O)CCSC[C@@H](C(N)=O)NC(=O)[C@H](Cc2c[nH]c3ccccc23)NC(=O)[C@@H]2C[C@@H](O)CN2C(=O)[C@@H]2CCCN2C(=O)[C@H]([C@@H](C)O)NC(=O)[C@H](CO)NC(=O)[C@H](Cc2c[nH]c3ccccc23)NC(=O)[C@H](CC(=O)O)NC(=O)[C@H](CCCCNC(=N)N)NC1=O [[^64Cu]Cu-3a, metal not drawn] (X1-CP[1Nal][dD]C[Nle][hArg]DWSTP[Hyp]WC-NH2; linker 1-5-15 via TATA) |  | -2.53 |  |  |  | 85.43 ±1.50% | ≈ 6 min | 1040 min | body retention at 2 h p.i. [5]: 70%; kidney uptake (SUVmean) at 2 h p.i. [5]: 25; half-life ([7]; Blood half life fast [min]): 1.24 ± 0.15 min; half-life ([7]; Blood half life slow [min]): 38.2 ± 2.68 min |
| COCC[C@@H]1NC(=O)[C@@H]2CSCCC(=O)N3CN(CN(C3)C(=O)CCSC[C@H](NC(=O)CC[C@H](C(=O)O)N3CCN(CC(=O)O)CCN(CC(=O)O)CC3)C(=O)N3CCC[C@H]3C(=O)N[C@@H](Cc3cccc4ccccc34)C(=O)N[C@H](CC(=O)O)C(=O)N2)C(=O)CCSC[C@@H](C(N)=O)NC(=O)[C@H](Cc2c[nH]c3ccccc23)NC(=O)[C@@H]2C[C@@H](O)CN2C(=O)[C@@H]2CCCN2C(=O)[C@H]([C@@H](C)O)NC(=O)[C@H](CO)NC(=O)[C@H](Cc2c[nH]c3ccccc23)NC(=O)[C@H](CC(=O)O)NC(=O)[C@H](CCCCNC(=N)N)NC1=O [[^64Cu]Cu-4, metal not drawn] (X1-CP[1Nal][dD]C[hSer](Me)[hArg]DWSTP[Hyp]WC-NH2; linker 1-5-15 via TATA) |  |  |  |  |  |  |  | 412 min | half-life ([7]; distribution phase, TAC for heart, two-phase decay, read-out: Blood half life fast): 1.3 ± 0.17 min; half-life ([7]; elimination phase, TAC for heart, two-phase decay, read-out: Blood half life slow): 32 ± 2.09 min; Kd ([6]; human): > 600000 nM |
| C[Se]CC[C@@H]1NC(=O)[C@@H]2CSCCC(=O)N3CN(CN(C3)C(=O)CCSC[C@H](NC(=O)CC[C@H](C(=O)O)N3CCN(CC(=O)O)CCN(CC(=O)O)CC3)C(=O)N3CCC[C@H]3C(=O)N[C@@H](Cc3cccc4ccccc34)C(=O)N[C@H](CC(=O)O)C(=O)N2)C(=O)CCSC[C@@H](C(N)=O)NC(=O)[C@H](Cc2c[nH]c3ccccc23)NC(=O)[C@@H]2C[C@@H](O)CN2C(=O)[C@@H]2CCCN2C(=O)[C@H]([C@@H](C)O)NC(=O)[C@H](CO)NC(=O)[C@H](Cc2c[nH]c3ccccc23)NC(=O)[C@H](CC(=O)O)NC(=O)[C@H](CCCCNC(=N)N)NC1=O [compound 5] (X1-CP[1Nal][dD]C[SeMet][hArg]DWSTP[Hyp]WC-NH2; linker 1-5-15 via TATA) | 19.5 |  | 1.69 |  |  |  |  |  | logD 7.4 ([2]; ^64Cu-labeled ligand, n-octanol/PBS pH 7.4, ±SD): –2.37 (±0.07) |
| CSCC[C@@H]1NC(=O)[C@@H]2CSCCC(=O)N3CN(CN(C3)C(=O)CCSC[C@H](NC(=O)CC[C@H](C(=O)O)N3CCN(CC(=O)O)CCN(CC(=O)O)CC3)C(=O)N3CCC[C@H]3C(=O)N[C@@H](Cc3cccc4ccccc34)C(=O)N[C@H](CC(=O)O)C(=O)N2)C(=O)CCSC[C@@H](C(N)=O)NC(=O)[C@H](Cc2c[nH]c3ccccc23)NC(=O)[C@@H]2C[C@@H](O)CN2C(=O)[C@@H]2CCCN2C(=O)[C@H]([C@@H](C)O)NC(=O)[C@H](CO)NC(=O)[C@H](Cc2c[nH]c3ccccc23)NC(=O)[C@H](CC(=O)O)NC(=O)[C@H](CCCNC(=N)N)NC1=O [compound 10] (X1-CP[1Nal][dD]CMRDWSTP[Hyp]WC-NH2; linker 1-5-15 via TATA) | 19.9 |  | 2.05 | 1.11e+06 M⁻¹ s⁻¹ | 0.00278 s⁻¹ |  |  |  |  |
